# In article PMC9767416, “Discovery of small molecule mechanistic target of rapamycin inhibitors as anti-aging and anti-cancer therapeutics” (Frontiers in Aging Neuroscience, 2022):
# Columns and labels:
# [1] = tested on: RPE-1 cells; assay: Time-lapse microscopy (Incucyte) of proliferating RPE-1; assay type: cell-based, human; details: 0, 10, 50, 80, 100 μM, 72 h
# Protocol: For auto-monitoring of cells, Incucyte SX1 Live-Cell Analysis System (Sartorius, Göttingen, Germany), located in an incubator maintained at 37°C under a 5% CO2 atmosphere and 95% humidity, was utilized. The images (1,408 × 1,040 pixels at 1.24 microns/pixel) were acquired using a 10× objective lens in phase contrast, red fluorescence (excitation: 585 ± 20 nm, emission: 635 [625, 705] nm, acquisition time: 100 ms) channels every 60 min during 72 h. The first image was acquired 30 min after adding compounds. The images were processed to measure cell confluence using Incucyte software (version 2022A). Annexin V – Dy647, Apronex (diluted 1:1,000) was used for apoptotic cell staining.
# [2] = tested on: mTORC2 substrate AKT (Ser473 phosphorylation); assay: Immunoblot of phospho-AKT (Ser473), mTORC2 activity in cells; assay type: cell-based, human; details: 100 μM; for AKT phosphorylation relative to control cells: after 5 h
# Description: For immunoblotting, the following primary and secondary antibodies were used: rabbit polyclonal p70 S6 kinase (#9202), rabbit monoclonal phospho-p70 S6 kinase (Thr389) ([…]), rabbit monoclonal AKT kinase (#4691), rabbit monoclonal phospho-AKT kinase (Ser473) ([…]) obtained from Cell Signaling Technology, Inc., Danvers MA, USA; p21waf1 (sc-56335) obtained from Santa Cruz Biotechnology, Inc., Dallas, TX, USA and mouse monoclonal anti-GAPDH (GTX3066) purchased from GeneTex, Inc., Irvine, CA, USA; goat anti-mouse (170-6516) or anti-rabbit IgG (H + L)-HRP conjugate (170-6515) purchased from BioRad, Hercules, CA, USA.
# Cells were harvested 1 and 5 h after treatment. Cells were washed with PBS, harvested into SDS sample lysis buffer (SLB; 2% SDS, 63 mM Tris–HCl, pH 6.8, and 10% glycerol), sonicated, and centrifuged. Protein concentration was determined by BCA assay (Pierce Biotechnology, Rockford, IL, USA); samples were adjusted to equal protein amount (40 μg) with SLB containing dithiothreitol (1% final conc.) and bromophenol blue (0.02% final conc.), and separated by SDS–PAGE in Tris-glycine-SDS buffer (BioRad, 1610772). Proteins were electrotransferred onto a nitrocellulose membrane (0.45 μm NC, Amersham™, GE Healthcare Life Sciences) using wet transfer in Tris-glycine buffer (BioRad, 1810704) with 10% methanol (Sigma, 59304). After blocking with 5% non-fat milk in PBS/Tween-20, proteins were detected using specific antibodies and horseradish peroxidase (HRP)-conjugated secondary antibodies. Peroxidase activity was detected by ECL detection reagents (Thermo Fisher Scientific, Waltham, MA, USA).
# BJ, RPE-1, U87, U373, T98, A172, MDA-MB-231, H1299, and DU-145 cells were exposed to compound 3 (100 μM) for 1 and 5 h and the level of AKT serine 473 (Ser473) phosphorylation was assayed by immunoblotting. […] However, in several cell types (BJ, RPE-1, MDA-MB-231, H1299, and DU-145), the AKT phosphorylation was higher after 5 h of exposure than in control cells (Figure 11).
compound,measurement,setting,value
"Nc1ccc(C(=O)Nc2cccc(-c3c[nH]c4ncccc34)c2)cc1O [Compound 3, N-(3-(1H-pyrrolo[2,3-b]pyridin-3-yl)phenyl)-4-amino-3-hydroxybenzamide]","effect on cell proliferation (cell confluence, time-lapse)",[1],showed the effect on RPE-1 cell proliferation
same,effect on Ser473 AKT phosphorylation,"[2]; A172, after 1 h",Transient inhibition
same,effect on Ser473 AKT phosphorylation,"[2]; BJ, after 1 h",Transient inhibition
same,AKT phosphorylation relative to control cells,[2]; BJ,higher
same,effect on Ser473 AKT phosphorylation,"[2]; DU-145, after 1 h",Transient inhibition
same,AKT phosphorylation relative to control cells,[2]; DU-145,higher
same,effect on Ser473 AKT phosphorylation,"[2]; H1299, after 1 h",Transient inhibition
same,AKT phosphorylation relative to control cells,[2]; H1299,higher
same,effect on Ser473 AKT phosphorylation,"[2]; MDA-MB-231, after 1 h",Transient inhibition
same,AKT phosphorylation relative to control cells,[2]; MDA-MB-231,higher
same,effect on Ser473 AKT phosphorylation,"[2]; RPE-1, after 1 h",Transient inhibition
same,AKT phosphorylation relative to control cells,[2]; RPE-1,higher
same,effect on Ser473 AKT phosphorylation,"[2]; T98, after 1 h",Transient inhibition
same,rank of the inhibitory effect on Ser473 AKT phosphorylation among cell lines,"[2]; T98, after 1 h, inhibitory level kept after 5 h",most potent inhibitory effect
same,effect on Ser473 AKT phosphorylation,"[2]; U87, after 1 h",Transient inhibition
same,effect on Ser473 AKT phosphorylation,"[2]; U373, after 1 h",Transient inhibition
